{
  "source": "patent US20020147237A1",
  "about": "“Preservation of bodily protein” (priority 2001, published 2002)",
  "key": {"[1]": {"system": "anaesthetised piglet model", "experiment": "arterial plasma amino acid, NH4, urea and blood glucose concentrations in anaesthetised piglets", "type": "in vivo", "settings": "for arterial glutamine level after 60 minutes (in words): after one hour of infusion of the single substance", "experimental": "(§1) Food was withheld from the animals for twelve hours prior to the experiment, but they had free access to water. Anaesthesia was induced by an intramuscular injection of xylazine 2.2 mg·kg^-1, tiletamine 3 mg·kg^-1+zolazepam 3 mg·kg^-1 and atropine 0.04 mg·kg^-1. In addition, all animals were given an intravenous bolus of morphine 1 mg·kg^-1 and, following tracheotomy, pancuronium bromide 0.3 mg·kg^-1. […] After the last measurements, still under anaesthesia, the animals were killed with an overdose of potassium chloride. After induction of anaesthesia the animals were tracheotomised and ventilated through an 8 mm endotracheal tube (Mallincrodt Laboratories, Athlone, Ireland) with a Servo ventilator […] ([…], Solna, Sweden). Ventilation was maintained at 25 breaths per minute with a positive end-expiratory pressure of 5 cm of H2O. […] The body temperature was kept stable by means of a thermostat controlled heating pad and warmed intravenous infusions. After skin incisions, a catheter was introduced in the left external jugular vein and advanced to the right hepatic vein under fluoroscopic control. Its position was confirmed by a contrast injection. The right external jugular vein was used for placement of a central venous catheter and a 7F pulmonary artery thermodilution catheter. An arterial catheter was inserted in a subclavian branch and advanced to a central position. Through a small suprapubic incision, a urinary catheter was placed in the bladder. A cutdown was made to place an ultrasonic flow probe (Transonic Systems Inc., Ithaca, N.Y., USA) around the femoral artery and to cannulate the femoral vein for blood sampling. Arterial blood gases were analysed on an ABL300/OSM3 system (Radiometer, Copenhagen, Denmark). […] The column eluate was mixed with ninhydrin reagent for amino acid detection. […] Blood glucose was analysed on a Reflolux® II (Boehringer Mannheim, Germany), using the glucose-oxidase/peroxidase reaction. Arterial and hepatic venous blood was drawn for calculations of splanchnic blood flow. […] The mean value of at least three measurements was adopted. After anaesthesia and surgical preparation the piglets were allowed a stabilisation period of one hour and randomly assigned to either Group 1 or Group 2."}, "[2]": {"system": "splanchnic area", "experiment": "splanchnic turnover (plasma flow times arterio-venous difference; negative = release, positive = uptake)", "type": "in vivo, piglets", "settings": "60 min", "experimental": "as §1, with “Anaesthesia was induced by an intramuscular injection of xylazine 2.2 mg·kg^-1, tiletamine 3 mg·kg^-1+zolazepam 3 mg·kg^-1 and atropine 0.04 mg·kg^-1.” left out, “adopted. Calculation of splanchnic blood flow was carried out according to the constant dye infusion technique (10). […] Splanchnic plasma flow was calculated according to a formula derived from Fick's principle: [formula] […] Femoral artery plasma flow was calculated as blood flow (1-EVF). The turnover of amino acids, ammonium and urea were calculated as plasma flow times the arterio-venous plasma concentration difference with negative values indicating release and positive values uptake.” for “adopted.”"}, "[3]": {"system": "anaesthetised piglet model", "experiment": "blood gas and hemodynamic variables in anaesthetised piglets during i.v. infusion", "type": "in vivo", "settings": "60 min", "experimental": "as §1, with “Anaesthesia was induced by an intramuscular injection of xylazine 2.2 mg·kg^-1, tiletamine 3 mg·kg^-1+zolazepam 3 mg·kg^-1 and atropine 0.04 mg·kg^-1.” left out, “adopted. Calculation of splanchnic blood flow was carried out according to the constant dye infusion technique (10). […] Splanchnic plasma flow was calculated according to a formula derived from Fick's principle: [formula] […] Femoral artery plasma flow was calculated as blood flow (1-EVF). The turnover of amino acids, ammonium and urea were calculated as plasma flow times the arterio-venous plasma concentration difference with negative values indicating release and positive values uptake.” for “adopted.”"}, "[4]": {"system": "hind leg skeletal muscle", "experiment": "hind leg turnover (plasma flow times arterio-venous difference; negative = release, positive = uptake)", "type": "in vivo, piglets", "settings": "Group 1; 60 min; Dosage 1: NH4+ 12.3 μmol·kg^−1·min^−1 i.v. alone", "experimental": "as §1, with “Anaesthesia was induced by an intramuscular injection of xylazine 2.2 mg·kg^-1, tiletamine 3 mg·kg^-1+zolazepam 3 mg·kg^-1 and atropine 0.04 mg·kg^-1.” left out, “Sweden).” for “Sweden). Ventilation was maintained at 25 breaths per minute with a positive end-expiratory pressure of 5 cm of H2O.”, “adopted. […] Femoral artery plasma flow was calculated as blood flow (1-EVF). The turnover of amino acids, ammonium and urea were calculated as plasma flow times the arterio-venous plasma concentration difference with negative values indicating release and positive values uptake.” for “adopted.”"}, "[5]": {"settings": "Group 1, 60 min, Dosage 1: NH4+ 12.3 μmol·kg^−1·min^−1 i.v. alone"}, "[6]": {"settings": "Group 1, Dosage 1: NH4+ 12.3 μmol·kg^−1·min^−1 i.v. alone"}, "[7]": {"settings": "Group 2, 60 min, Dosage 1: α-ketoglutarate 2.85 μmol·kg^−1·min^−1 i.v. alone"}, "[8]": {"settings": "Group 2, Dosage 1: α-ketoglutarate 2.85 μmol·kg^−1·min^−1 i.v. alone"}},
  "data": [
    {"compound": "Cl.N", "note": "[NH4Cl, ammonium chloride]", "values": [
      {"measurement": "Glucose concentration", "setting": "[1]; [5]", "value": "5.5 ± 0.5", "unit": "mmol/L"},
      {"measurement": "arterial Alanine concentration", "setting": "[1]; [5]", "value": "412 ± 44", "unit": "a μmol · L^−1"},
      {"measurement": "arterial Arginine concentration", "setting": "[1]; [5]", "value": "80 ± 8", "unit": "µmol/L"},
      {"measurement": "arterial Glutamate concentration", "setting": "[1]; [5]", "value": "191 ± 20", "unit": "µmol/L"},
      {"measurement": "arterial Glutamine concentration", "setting": "[1]; [5]", "value": "450 ± 26", "unit": "a μmol · L^−1"},
      {"measurement": "arterial NH4^+ concentration", "setting": "[1]; [5]", "value": "135 ± 14", "unit": "a μmol · L^−1"},
      {"measurement": "arterial Total AA concentration", "setting": "[1]; [5]", "value": "3034 ± 139", "unit": "µmol/L"},
      {"measurement": "arterial Urea concentration", "setting": "[1]; [5]", "value": "3.4 ± 0.3", "unit": "mmol/L"},
      {"measurement": "arterial glutamine level after 60 minutes (in words)", "setting": "[1]", "value": "increased"},
      {"measurement": "Alanine turnover, splanchinc", "setting": "[2]; [6]", "value": "2.22 ± 0.28", "unit": "µmol/min/kg"},
      {"measurement": "Arginine turnover, splanchinc", "setting": "[2]; [6]", "value": "-0.23 ± 0.10", "unit": "µmol/min/kg"},
      {"measurement": "FE (%)-NH4^+, splanchinc", "setting": "[2]; [6]", "value": "81 ± 4", "unit": "a %"},
      {"measurement": "Glutamate turnover, splanchinc", "setting": "[2]; [6]", "value": "-4.32 ± 0.28", "unit": "µmol/min/kg"},
      {"measurement": "Glutamine turnover, splanchinc", "setting": "[2]; [6]", "value": "2.59 ± 0.56", "unit": "µmol/min/kg"},
      {"measurement": "NH4^+ turnover, splanchinc", "setting": "[2]; [6]", "value": "3.09 ± 0.28", "unit": "a μmol·min^−1·kg^−1"},
      {"measurement": "Total AA turnover, splanchinc", "setting": "[2]; [6]", "value": "3.93 ± 2.08", "unit": "µmol/min/kg"},
      {"measurement": "Urea turnover, splanchinc", "setting": "[2]; [6]", "value": "-3.2 ± 1.4", "unit": "µmol/min/kg"},
      {"measurement": "Arterial pH", "setting": "[3]; [6]", "value": "7.43 ± 0.01", "unit": "a"},
      {"measurement": "C.O.", "setting": "[3]; [6]", "value": "138 ± 17", "unit": "mL/min/kg"},
      {"measurement": "Leg blood flow", "setting": "[3]; [6]", "value": "4.7 ± 0.4", "unit": "mL/min/kg"},
      {"measurement": "PaCO2", "setting": "[3]; [6]", "value": "5.18 ± 0.06", "unit": "kPa"},
      {"measurement": "Spl. blood flow", "setting": "[3]; [6]", "value": "43 ± 5", "unit": "mL/min/kg"},
      {"measurement": "Leg blood flow", "setting": "[3]; Group 1, Dosage 1: NH4+ 12.3 μmol·kg^−1·min^−1 i.v. alone, listed as ammonium chloride", "value": "4.7 ± 0.4", "unit": "a ml · min^−1 · kg^−1"},
      {"measurement": "Alanine turnover, hind leg", "setting": "[4]", "value": "-0.13 ± 0.04", "unit": "µmol/min/kg"},
      {"measurement": "Arginine turnover, hind leg", "setting": "[4]", "value": "0.01 ± 0.005", "unit": "µmol/min/kg"},
      {"measurement": "FE (%)-NH4^+, hind leg", "setting": "[4]", "value": "46 ± 3", "unit": "a %"},
      {"measurement": "Glutamate turnover, hind leg", "setting": "[4]", "value": "0.22 ± 0.03", "unit": "µmol/min/kg"},
      {"measurement": "Glutamine turnover, hind leg", "setting": "[4]", "value": "-0.09 ± 0.04", "unit": "µmol/min/kg"},
      {"measurement": "NH4^+ turnover, hind leg", "setting": "[4]", "value": "0.22 ± 0.03", "unit": "a μmol·min^−1·kg^−1"},
      {"measurement": "Total AA turnover, hind leg", "setting": "[4]", "value": "0.12 ± 0.23", "unit": "µmol/min/kg"},
      {"measurement": "Urea turnover, hind leg", "setting": "[4]", "value": "0.2 ± 0.2", "unit": "µmol/min/kg"}
    ]},
    {"compound": "O=C(O)CCC(=O)C(=O)O", "note": "[α-KGA, α-ketoglutaric acid]", "values": [
      {"measurement": "Glucose concentration", "setting": "[1]; [7]", "value": "5.6 ± 0.4", "unit": "mmol/L"},
      {"measurement": "arterial Alanine concentration", "setting": "[1]; [7]", "value": "462 ± 34", "unit": "µmol/L"},
      {"measurement": "arterial Arginine concentration", "setting": "[1]; [7]", "value": "75 ± 5", "unit": "µmol/L"},
      {"measurement": "arterial Glutamate concentration", "setting": "[1]; [7]", "value": "264 ± 32", "unit": "µmol/L"},
      {"measurement": "arterial Glutamine concentration", "setting": "[1]; [7]", "value": "361 ± 24", "unit": "z μmol · L^−1"},
      {"measurement": "arterial Urea concentration", "setting": "[1]; [7]", "value": "2.7 ± 0.2", "unit": "mmol/L"},
      {"measurement": "drop of arterial glutamine concentration compared to the baseline level", "setting": "[1]; Group 2, after one hour of α-KGA infusion alone", "value": "9±2", "unit": "%"},
      {"measurement": "arterial glutamine level after 60 minutes (in words)", "setting": "[1]", "value": "decreased"},
      {"measurement": "FE (%)-NH4^+, splanchinc", "setting": "[2]; [8]", "value": "28 ± 10", "unit": "%"},
      {"measurement": "Arterial pH", "setting": "[3]; [8]", "value": "7.47 ± 0.01"},
      {"measurement": "C.O.", "setting": "[3]; [8]", "value": "144 ± 10", "unit": "a ml · min^−1 kg^−1"},
      {"measurement": "PaCO2", "setting": "[3]; [8]", "value": "5.27 ± 0.06", "unit": "kPa"}
    ]}
  ]
}
